The values that follow come from paper PMC9855333, “1-(Arylsulfonyl-isoindol-2-yl)piperazines as 5-HT6R Antagonists: Mechanochemical Synthesis, In Vitro Pharmacological Properties and Glioprotective Activity” (Biomolecules, 2022).

Where “and” joins values, the source holds several entries; their conditions need not be identical. Identical values can stand only once. Like-named read-outs stand apart in the source and are kept apart here. A value given as a limit tells only on which side of the number the result lay.

Data set [1] in a line: Metabolic stability in rat liver microsomes (RLM). The conditions noted are these: for microsomal CLint at 20 µM / half-life at 20 µM: male, rat, rat liver microsomes, pH 7.4, protein concentration 0.5 mg/mL; for half-life at 20 µM: read-out: Metabolic Stability t1/2; for Metabolic Stability Major Metabolite: protein concentration 0.5 mg/mL. Format: in vitro ADME. Here is the method: Metabolic stability studies were performed according to reported protocols. […] All samples were analyzed in duplicate.

The next data set concerns the target 5-HT6R (Homo sapiens, UniProt P50406). The experiment in a line: Radioligand binding, [3H]-LSD displacement, HEK-293 cells. More on the design: expressed in transfected cells. The note with it: three independent binding experiments. Here is the method: All experiments were performed in HEK-293 cells, which stably express the human 5-HT1A, 5-HT6, 5-HT7b, and D2L receptors, or using CHO-K1 cells expressing human serotonin 5-HT2A receptor, following the previously reported procedures. For displacement studies, the following radioligands (PerkinElmer, USA) at given concentrations were used at: 2.5 nM [^3H]-8-OH-DPAT (135.2 Ci/ mmol); 1 nM [^3H]-ketanserin (53.4 Ci/mmol); 2 nM [^3H]-LSD (83.6 Ci/mmol); 0.8 nM [^3H]-5-CT (39.2 Ci/mmol) or 2.5 nM [^3H]-raclopride (76.0 Ci/mmol) for 5-HT1A, 5-HT2A, 5-HT6, 5-HT7b and D2L receptors, respectively. All tested compounds were evaluated in triplicate at 7 concentrations (10^−10–10^−4 M). The inhibition constants (Ki) were calculated from the Cheng–Prusoff equation [25]. A detailed description is reported in the Supporting Information.
All synthesized compounds were evaluated in ^3[H]-LSD competition binding experiments for their affinity for 5-HT6R expressed in HEK-293 cells (Table 1). Embedding the sulfonamide moiety into an unsubstituted isoindoline scaffold was sufficient to provide potent compounds 3a and 3e. […] This effect might result from the favorable localization of the bromine atom at the isoindoline fragment, which enabled compound 3k to adopt an optimal position in the receptor binding pocket via the formation of hydrophobic/steric interactions.
1. Procedure for radioligand binding assay
All experiments were carried out according to the previously published procedures. HEK293 cells stably expressing human 5-HT1A, 5-HT6, 5-HT7b and D2L receptors (prepared with the use of Lipofectamine 2000) or CHO-K1 cells with plasmid containing the sequence coding for the human serotonin 5-HT2A receptor (Perkin Elmer) were maintained at 37 °C in a humidified atmosphere containing 5% CO2 and grown in Dulbecco’s Modified Eagle’s Medium containing 10% dialyzed fetal bovine serum and 500 μg/ml G418 sulfate. For membrane preparation, cells were cultured in 150 cm2 flasks, grown to 90% confluence, washed twice with pre-warmed to 37 °C phosphate buffered saline (PBS) and centrifuged (200 × g) in PBS containing 0.1 mM EDTA and 1 mM dithiothreitol. Prior to membrane preparation, pellets were stored at –80 °C. Cell pellets were thawed and homogenized in 10 volumes of assay buffer using an Ultra Turrax tissue homogenizer and centrifuged twice at 35,000 × g for 15 min at 4 °C, with incubation for 15 min at 37 °C between the centrifugations. The composition of the assay buffers was experimentally selected to achieve the […]
5-HT1AR: 50 mM Tris HCl, 0.1 mM EDTA, 4 mM MgCl2, 10 μM pargyline and 0.1% ascorbate; 5-HT2AR: 50 mM Tris HCl, 0.1 mM EDTA, 4 mM MgCl2 and 0.1% ascorbate;
5-HT6R: 50 mM Tris HCl, 0.5 mM EDTA and 4 mM MgCl2; 5-HT7bR: 50 mM Tris HCl, 4 mM MgCl2, 10 μM pargyline and 0.1% ascorbate; D2LR: 50 mM Tris HCl, 1 mM EDTA, 4 mM MgCl2, 120 mM NaCl, 5 mM KCl, 1.5 mM CaCl2 and 0.1% ascorbate).
All assays were carried out in a total volume of 200 μL in 96-well plates for 1 h at 37 °C, except 5-HT1AR and 5-HT2AR which were incubated at room temperature and 27 °C, respectively.
The process of equilibration was terminated by rapid filtration through Unifilter plates with a 96-well cell harvester and radioactivity retained on the filters was quantified on a Microbeta plate reader (PerkinElmer, USA). For displacement studies the assay samples contained as radioligands (PerkinElmer, USA): 2.5 nM [3H]-8-OH-DPAT (135.2 Ci/ mmol) for 5-HT1AR; 1 nM [3H]-ketanserin (53.4 Ci/mmol) for 5-HT2AR; 2 nM [3H]-LSD (83.6 Ci/mmol) for 5-HT6R; 0.8 nM [3H]-5-CT (39.2 Ci/mmol) for 5-HT7R or 2.5 nM [3H]-raclopride (76.0 Ci/mmol) for D2LR. Non-specific binding was defined in the presence of 10 μM of 5-HT in 5-HT1AR and 5-HT7R binding experiments, 20 μM of mianserin for 5-HT2AR, 10 μM of methiothepine for 5-HT6R or 10 μM of haloperidol for D2LR bidning assays. Each compound was tested in triplicate at 7 concentrations (10-10–10-4 M). The inhibition constants (Ki) were calculated […]

Setting [2] is: Table 1, HEK293 cells, read-out: Ki [nM] ± SEM at the 5-HT6R.
Where [3] appears, read: Table 2, mean ± SEM, read-out: 5-HT6R Ki.

5-HT6R, sequence (P50406 whole entry): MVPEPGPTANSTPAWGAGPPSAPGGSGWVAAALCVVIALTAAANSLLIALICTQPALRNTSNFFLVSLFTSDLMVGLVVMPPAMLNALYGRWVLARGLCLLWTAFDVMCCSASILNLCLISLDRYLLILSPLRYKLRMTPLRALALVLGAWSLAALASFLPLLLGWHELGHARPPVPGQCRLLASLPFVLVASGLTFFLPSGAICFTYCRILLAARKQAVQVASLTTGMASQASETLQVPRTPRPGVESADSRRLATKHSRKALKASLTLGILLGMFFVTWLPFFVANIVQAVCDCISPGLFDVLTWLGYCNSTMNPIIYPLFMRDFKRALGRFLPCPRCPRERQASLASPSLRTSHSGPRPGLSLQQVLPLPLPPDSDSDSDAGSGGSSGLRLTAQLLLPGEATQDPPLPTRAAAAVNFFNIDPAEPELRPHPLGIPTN

As usually defined, the microsomal CLint is a measure of how fast metabolising enzymes remove a compound, apart from limits set by blood flow. Usually Ki stands for the dissociation constant of the complex between target and ligand, obtained from inhibition or displacement. For `O=S(=O)(c1cccc(N2CCNCC2)c1)N1Cc2cccc(Br)c2C1` [3g, 4-Bromo-2-{[3-(piperazin-1-yl)phenyl]sulfonyl}isoindoline], in data set [1], the microsomal CLint at 20 µM was determined as 14.7 µL/min/mg, the half-life at 20 µM was determined as 1.57 h and the “Metabolic Stability Major Metabolite” value is reported as “hydroxylated”. Moreover, at 5-HT6R (setting [2]), the Ki was < 5 nM and 1 nM. Besides, the Ki on 5-HT6R (setting [3]) turned out to be 1 ± 0.4 nM.
In the case of `O=S(=O)(c1cccc(N2CCNCC2)c1)N1Cc2ccccc2C1` [3e, 2-{[3-(Piperazin-1-yl)phenyl]sulfonyl}isoindoline], in data set [1], the microsomal CLint at 20 µM is 3.78 µL/min/mg, the half-life at 20 µM turned out to be 6.12 h and the “Metabolic Stability Major Metabolite” value is on record as “not detected”. The Ki on 5-HT6R (setting [2]) was less than 5 nM. The Ki on 5-HT6R (setting [3]) came out at 2 ± 0.2 nM.
Take `O=S(=O)(c1cccc(N2CCNCC2)c1)N1Cc2cccc(Cl)c2C1` [3f, 4-Chloro-2-{[3-(piperazin-1-yl)phenyl]sulfonyl}isoindoline]: in data set [1], the intrinsic clearance (microsomal CLint) at 20 µM was 18 µL/min/mg, the half-life at 20 µM came out at 1.28 h and the “Metabolic Stability Major Metabolite” value is listed as “hydroxylated”. At 5-HT6R (setting [2]), the Ki is < 5 nM and 1 nM. Besides, the Ki on 5-HT6R (setting [3]) was 1 ± 0.2 nM.
